The values that follow come from patent US20250144094A1 (Erasca, Inc., priority 2021, published 2025).

The assay deals with Recombinant human ULK1 (1-649) (Homo sapiens (Human), UniProt O75385). The experiment in a line: ULK1 ADP Glo kinase activity assay, new method (ULKtide peptide substrate). The following applies: 25° C., 40 minutes, read-out: ULK1 biochemical IC50. Summed up:
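GST-tagged human ULK1 (1-649) from Sf9 cells was reacted with ULKtide peptide and ATP for 40 min at 25 °C across 12-point compound dilutions from 10 μM. ADP formed was quantified by ADP-Glo luminescence; IC50 came from four-parameter fits relative to DMSO controls.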

Sequence of Recombinant human ULK1 (1-649) (O75385 1-649): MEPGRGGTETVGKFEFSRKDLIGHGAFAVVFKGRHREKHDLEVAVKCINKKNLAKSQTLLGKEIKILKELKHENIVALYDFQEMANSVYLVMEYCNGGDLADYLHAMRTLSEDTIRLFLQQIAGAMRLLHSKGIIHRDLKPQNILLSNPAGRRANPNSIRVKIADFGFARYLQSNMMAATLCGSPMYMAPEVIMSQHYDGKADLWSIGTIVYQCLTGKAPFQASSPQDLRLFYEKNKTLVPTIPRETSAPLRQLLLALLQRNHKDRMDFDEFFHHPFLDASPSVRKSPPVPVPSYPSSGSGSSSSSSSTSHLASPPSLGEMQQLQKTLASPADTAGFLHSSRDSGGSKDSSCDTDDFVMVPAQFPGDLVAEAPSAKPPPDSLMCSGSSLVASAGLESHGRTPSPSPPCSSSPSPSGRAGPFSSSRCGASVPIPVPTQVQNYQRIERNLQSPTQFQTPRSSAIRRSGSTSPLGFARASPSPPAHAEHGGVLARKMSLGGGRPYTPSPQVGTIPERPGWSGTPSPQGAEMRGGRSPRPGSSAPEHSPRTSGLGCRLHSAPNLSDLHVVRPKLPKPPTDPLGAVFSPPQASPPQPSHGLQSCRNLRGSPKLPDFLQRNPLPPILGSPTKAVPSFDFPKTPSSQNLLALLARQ

As for `C[C@@H]1CN(c2ccc(Nc3ncc(C(F)(F)F)c(-c4cc5c(s4)C(=O)N(C4CC4)CCS5(=O)=O)n3)c(C3CC3)c2)CCN1` [Example 308, (R)-4-cyclopropyl-7-(2-((2-cyclopropyl-4-(3-methylpiperazin-1-yl)phenyl)amino)-5-(trifluoromethyl)pyrimidin-4-yl)-3,4-dihydrothieno[2,3-f][1,4]thiazepin-5(2H)-one 1,1-dioxide], the IC50 (as a rule, the concentration that inhibits the measured activity by half) is not above 5 nM.
Regarding `C[C@@H]1CN(c2ccc(Nc3ncc(C(F)(F)F)c(-c4cc5c(s4)C(=O)N(C4CC4)CCS5(=O)=O)n3)c(C3CC3)c2)CCN1C` [Example 309, (R)-4-cyclopropyl-7-(2-((2-cyclopropyl-4-(3,4-dimethylpiperazin-1-yl)phenyl)amino)-5-(trifluoromethyl)pyrimidin-4-yl)-3,4-dihydrothieno[2,3-f][1,4]thiazepin-5(2H)-one 1,1-dioxide], the concentration for half-maximal inhibition (IC50) was not above 5 nM.
As for `O=C1c2sc(-c3nc(Nc4ccc(N5C[C@@H]6C[C@H]5CN6)cc4C4CC4)ncc3C(F)(F)F)cc2S(=O)(=O)CCN1C1COC1` [Example 310, 7-(2-((4-((1S,4S)-2,5-diazabicyclo[2.2.1]heptan-2-yl)-2-cyclopropylphenyl)amino)-5-(trifluoromethyl)pyrimidin-4-yl)-4-(oxetan-3-yl)-3,4-dihydrothieno[2,3-f][1,4]thiazepin-5(2H)-one 1,1-dioxide], the IC50 was not above 5 nM.
With `O=S1(=O)CCNS(=O)(=O)c2sc(-c3nc(Nc4cc5c(cc4C4CC4)CNCC5)ncc3C(F)(F)F)cc21` [Example 311, 7-(2-((7-cyclopropyl-1,2,3,4-tetrahydroisoquinolin-6-yl)amino)-5-(trifluoromethyl)pyrimidin-4-yl)-3,4-dihydro-2H-thieno[3,2-f][1,5,2]dithiazepine 1,1,5,5-tetraoxide] the figure was not above 5 nM; with `O=C1c2sc(-c3nc(Nc4cc5c(cc4C4CC4)CN(CCOC(F)(F)F)CC5)ncc3C(F)(F)F)cc2S(=O)(=O)CCN1C1COC1` [Example 312, 7-(2-((7-cyclopropyl-2-(2-(trifluoromethoxy)ethyl)-1,2,3,4-tetrahydroisoquinolin-6-yl)amino)-5-(trifluoromethyl)pyrimidin-4-yl)-4-(oxetan-3-yl)-3,4-dihydrothieno[2,3-f][1,4]thiazepin-5(2H)-one 1,1-dioxide], 5 to 10 nM; with `CN1[C@@H]2CC[C@H]1CN(c1ccc(Nc3ncc(C(F)(F)F)c(-c4cc5c(s4)C(=O)N(C4CC4)CCS5(=O)=O)n3)c(C3CC3)c1)C2` [Example 313, 4-cyclopropyl-7-(2-((2-cyclopropyl-4-((1R,5S)-8-methyl-3,8-diazabicyclo[3.2.1]octan-3-yl)phenyl)amino)-5-(trifluoromethyl)pyrimidin-4-yl)-3,4-dihydrothieno[2,3-f][1,4]thiazepin-5(2H)-one 1,1-dioxide], not above 5 nM.
Regarding `O=C1c2sc(-c3nc(Nc4cc5c(cc4C4CC4)CN(CCOC(F)(F)F)CC5)ncc3C(F)(F)F)cc2S(=O)(=O)CCN1C1CC1` [Example 314, 4-cyclopropyl-7-(2-((7-cyclopropyl-2-(2-(trifluoromethoxy)ethyl)-1,2,3,4-tetrahydroisoquinolin-6-yl)amino)-5-(trifluoromethyl)pyrimidin-4-yl)-3,4-dihydrothieno[2,3-f][1,4]thiazepin-5(2H)-one 1,1-dioxide], the IC50 lay in the range of 10 to 50 nM.
The value for `C[C@@H]1CN(c2ccc(Nc3ncc(C(F)(F)F)c(-c4cc5c(s4)C(=O)N(C4COC4)CCS5(=O)=O)n3)c(C3CC3)c2)CCN1` [Example 315, (R)-7-(2-((2-cyclopropyl-4-(3-methylpiperazin-1-yl)phenyl)amino)-5-(trifluoromethyl)pyrimidin-4-yl)-4-(oxetan-3-yl)-3,4-dihydrothieno[2,3-f][1,4]thiazepin-5(2H)-one 1,1-dioxide] was not above 5 nM; that for `C[C@@H]1CN(c2ccc(Nc3ncc(C(F)(F)F)c(-c4cc5c(s4)C(=O)N(C4COC4)CCS5(=O)=O)n3)c(C3CC3)c2)CCN1C` [Example 316, (R)-7-(2-((2-cyclopropyl-4-(3,4-dimethylpiperazin-1-yl)phenyl)amino)-5-(trifluoromethyl)pyrimidin-4-yl)-4-(oxetan-3-yl)-3,4-dihydrothieno[2,3-f][1,4]thiazepin-5(2H)-one 1,1-dioxide] was not above 5 nM.
As for `CN1C[C@@H]2C[C@H]1CN2c1ccc(Nc2ncc(C(F)(F)F)c(-c3cc4c(s3)C(=O)N(C3COC3)CCS4(=O)=O)n2)c(C2CC2)c1` [Example 317, 7-(2-((2-cyclopropyl-4-((1S,4S)-5-methyl-2,5-diazabicyclo[2.2.1]heptan-2-yl)phenyl)amino)-5-(trifluoromethyl)pyrimidin-4-yl)-4-(oxetan-3-yl)-3,4-dihydrothieno[2,3-f][1,4]thiazepin-5(2H)-one 1,1-dioxide], the IC50 was not above 5 nM.
The value for `O=C1c2sc(-c3nc(Nc4ccc(N5C[C@H]6CC[C@@H](C5)N6)cc4C4CC4)ncc3C(F)(F)F)cc2S(=O)(=O)CCN1C1COC1` [Example 318, 7-(2-((4-((1R,5S)-3,8-diazabicyclo[3.2.1]octan-3-yl)-2-cyclopropylphenyl)amino)-5-(trifluoromethyl)pyrimidin-4-yl)-4-(oxetan-3-yl)-3,4-dihydrothieno[2,3-f][1,4]thiazepin-5(2H)-one 1,1-dioxide] was not above 5 nM.
With `CCc1cc(N2C[C@@H]3C[C@H]2CN3)ccc1Nc1ncc(C(F)(F)F)c(-c2cc3c(s2)C(=O)N(C2CC2)CCS3(=O)=O)n1` [Example 319, 7-(2-((4-((1S,4S)-2,5-diazabicyclo[2.2.1]heptan-2-yl)-2-ethylphenyl)amino)-5-(trifluoromethyl)pyrimidin-4-yl)-4-cyclopropyl-3,4-dihydrothieno[2,3-f][1,4]thiazepin-5(2H)-one 1,1-dioxide] the figure was not above 5 nM; with `CN1[C@@H]2CC[C@H]1CN(c1ccc(Nc3ncc(C(F)(F)F)c(-c4cc5c(s4)C(=O)N(C4COC4)CCS5(=O)=O)n3)c(C3CC3)c1)C2` [Example 320, 7-(2-((2-cyclopropyl-4-((1R,5S)-8-methyl-3,8-diazabicyclo[3.2.1]octan-3-yl)phenyl)amino)-5-(trifluoromethyl)pyrimidin-4-yl)-4-(oxetan-3-yl)-3,4-dihydrothieno[2,3-f][1,4]thiazepin-5(2H)-one 1,1-dioxide], not above 5 nM; with `CCc1cc(N2C[C@@H]3C[C@H]2CN3C)ccc1Nc1ncc(C(F)(F)F)c(-c2cc3c(s2)C(=O)N(C2CC2)CCS3(=O)=O)n1` [Example 321, 4-cyclopropyl-7-(2-((2-ethyl-4-((1S,4S)-5-methyl-2,5-diazabicyclo[2.2.1]heptan-2-yl)phenyl)amino)-5-(trifluoromethyl)pyrimidin-4-yl)-3,4-dihydrothieno[2,3-f][1,4]thiazepin-5(2H)-one 1,1-dioxide], not above 5 nM.
With `CCc1cc(N2C[C@H]3C[C@@H]2CN3)ccc1Nc1ncc(C(F)(F)F)c(-c2cc3c(s2)C(=O)N(C2CC2)CCS3(=O)=O)n1` [Example 322, 7-(2-((4-((1R,4R)-2,5-diazabicyclo[2.2.1]heptan-2-yl)-2-ethylphenyl)amino)-5-(trifluoromethyl)pyrimidin-4-yl)-4-cyclopropyl-3,4-dihydrothieno[2,3-f][1,4]thiazepin-5(2H)-one 1,1-dioxide] the figure was not above 5 nM.
